Results as given in patent publication US6337069B1, “Method of treating rhinitis or sinusitis by intranasally administering a peptidase” (B.M.R.A. Corporation B.V., priority 2001, dated 2002).
Ends that are not written are not given here.

Experiments:
[1] = Basal vascular parameters in the anaesthetised pig in vivo (blood flow, heart rate, MAP, vascular resistance)
Description: (§1) Each experiment lasted approximately 8 hours.
The basal blood flow in the internal maxillary artery of the pig under control conditions was 4.92+/−0.7 ml min^−1 kg^−1. After section of the sympathetic nerves on the left side, the homolateral nasal arterial flow was 6.1+/−0.26 ml min^−1 kg^−1 (representing a 19.34% +/−4.3% increase). The mean arterial blood pressure (MAP) was not modified by the section of the sympathetic nerves. […] Sympathetic nerve stimulation at 10 Hz for 5 minutes reduced the blood flow in the maxillary artery from 4.92+/−0.7 ml min^−1 kg^−1 to 1.40+/−0.47 ml min^−1 kg^−1, representing an […] of 71.5% and lasting more than 6 minutes. The i.a. infusion of phenoxybenzamine induced a MAP reduction of 10+/−2%.

[2] = test system: vasodilation evoked by capsaicin; test: Capsaicin-evoked vasodilation in pig nasal mucosa in vivo
Description: Experiments were performed on pigs of both sexes (body weight 18-25 kg). All animals were premedicated with atropine (0.05 mg/kg) and ketamine (20 mg/kg i.m.). They were anesthesized with thiopentone (5 mg/kg i.v.). After tracheostomy, animals were intubated and artificially ventilated by a volume regulated ventilator. During surgery, animals were given a continuous i.v. infusion of Ringer's solution, pancuronium bromide (0.25 mg/kg) and heparin. […] Catheters were placed in the femoral artery for systemic blood pressure and heart rate monitoring and in the femoral vein for thiopentone, heparin and fluid administration (300 ml/hr). The contralateral femoral vein was canulated for blood sampling. […] Selective recording of the nasal arterial blood flow was performed with a Transonic flow probe (probe 2.4RB143) of 2.4 mm diameter placed around the sphenopalatine artery. The flow probe was connected to a T202S ultrasonic blood flowmeter. All the arterial branches situated downstream of the flow probe were ligated and cut except for the superficial temporal artery which was cannulated with a PE 90 catheter for infusions or injections.
(§2) Variations in the area under the curve (AUC) of the sphenopalatine artery vascular resistance (Vr), derived from both mean arterial blood pressure and systemic blood flow curves, were analyzed over time. Durations of the responses of the vascular resistance were compared and all results were expressed in percent of baseline. Vascular parameters were recorded simultaneously using a 6 pen trace recorder.
(§3) All animals were intranasally administered DPIV (50 μg, 26.5 pmoles/kg), subjected to sympathetic nerve stimulation (SNS, 15 V, 5 ms, 10 Hz for 2 minutes) and then infused with histamine (0.1-25 μg), capsacin (0.01-25 μg), bradykinin (0.001-10 μg), SP or its C-terminal fragment SP 5-11, DPPIV, or NK1 antagonist L733060 in the superficial temporal artery under controlled conditions. In each case, the vascular response of the animal was measured. This entire procedure was then repeated after local i.a. pretreatment with the alpha-adrenergic receptor antagonist phenoxybenzanime (1 mg/kg).

[3] = test system: sphenopalatine vascular resistance; test: Vasodilator dose-response of SP and SP 5-11 in pig in vivo; conditions: for reduction in SVR: before DPPIV
Description: Experiments were performed on pigs of both sexes (body weight 18-25 kg). All animals were premedicated with atropine (0.05 mg/kg) and ketamine (20 mg/kg i.m.). They were anesthesized with thiopentone (5 mg/kg i.v.). After tracheostomy, animals were intubated and artificially ventilated by a volume regulated ventilator. During surgery, animals were given a continuous i.v. infusion of Ringer's solution, pancuronium bromide (0.25 mg/kg) and heparin. Each experiment lasted approximately 8 hours. Catheters were placed in the femoral artery for systemic blood pressure and heart rate monitoring and in the femoral vein for thiopentone, heparin and fluid administration (300 ml/hr). The contralateral femoral vein was canulated for blood sampling. Surgical preparation of the internal maxillary artery was done in accordance with Lacroix (Acta Physiol. Scand. 136:1-63 (1989)). Selective recording of the nasal arterial blood flow was performed with a Transonic flow probe (probe 2.4RB143) of 2.4 mm diameter placed around the sphenopalatine artery. The flow probe was connected to a T202S ultrasonic blood flowmeter. All the arterial branches situated downstream of the flow probe were ligated and cut except for the superficial temporal artery which was cannulated with a PE 90 catheter for infusions or injections.
as §2, §3
Therefore, the same animal was used to perform dose-response curves with SP both before and after pretreatment with DPPIV. A dose-response curve for duration of vasodilation and area under the curve was constructed using doses of SP in the range of 1 pg to 0.1 μg. […] The same animals received 50 μg (530 pmoles) of DPPIV and similar doses of SP were injected. […] Since DPPIV cleaves SP into SP 5-11, experiments were conducted to determine whether SP 5-11 is also capable of decreasing SVR.

[4] = test system: histamine vasodilatory effects; test: Histamine-evoked vasodilation in pig nasal mucosa in vivo; conditions: no DPPIV
Description: as §1

[5] = test system: SP-evoked vasodilatory response; test: Modulation of SP-evoked vasodilation in pig nasal mucosa in vivo; conditions: pretreatment 114 nmoles/kg; all doses of SP used except 100 ng
Description: Experiments were performed on pigs of both sexes (body weight 18-25 kg). All animals were premedicated with atropine (0.05 mg/kg) and ketamine (20 mg/kg i.m.). They were anesthesized with thiopentone (5 mg/kg i.v.). After tracheostomy, animals were intubated and artificially ventilated by a volume regulated ventilator. During surgery, animals were given a continuous i.v. infusion of Ringer's solution, pancuronium bromide (0.25 mg/kg) and heparin. Each experiment lasted approximately 8 hours. Catheters were placed in the femoral artery for systemic blood pressure and heart rate monitoring and in the femoral vein for thiopentone, heparin and fluid administration (300 ml/hr). The contralateral femoral vein was canulated for blood sampling. […] Selective recording of the nasal arterial blood flow was performed with a Transonic flow probe (probe 2.4RB143) of 2.4 mm diameter placed around the sphenopalatine artery. The flow probe was connected to a T202S ultrasonic blood flowmeter. […]
Variations in the area under the curve (AUC) of the sphenopalatine artery vascular resistance (Vr), derived from both mean arterial blood pressure and systemic blood flow curves, were analyzed over time. […] Vascular parameters were recorded simultaneously using a 6 pen trace recorder. […]

[6] = SNS and PBZ pretreatment, no DPPIV, capsaicin 8.2×10^−08 moles

With `CC(COc1ccccc1)N(CCCl)Cc1ccccc1` (centres unmarked) [phenoxybenzamine] the MAP reduction ([1]; i.a. infusion of phenoxybenzamine) was 10+/−2%, the “reduction of AUC of capsaicin effect” value [2, 6] was 26.6% and the “reduction of duration of vasodilation evoked by capsaicin” value [2, 6] was 39.9%. The “variation of vasodilatory effect of capsaicin” value ([2]; after SNS and PBZ pretreatment, any doses, no DPPIV) was “no significant variation”.

For “SP: substance P, bioactive peptide released by sensory neurons; NK1 agonist”, the “reduction in SVR” value ([3]; SP 100 pg) was 13.1%, the “reduction in SVR” value ([3]; SP 1 ng) was 14.9% and the “potency of SP relative to SP 5-11 as a vasodilator” value ([3]; based on molarity) was 200 fold. It also gave a vasodilation ([3]; local intraarterial administration of 1 pg SP) of 15.1% +/−3.3% and a vasodilation ([3]; local intraarterial administration of 100 ng SP) of 37.3% +/−3.3%.

With `NCCc1c[nH]cn1` [Histamine] the “reduction in duration of histamine effect vs control” value ([4]; histamine i.a. 1.4×10^−07 moles following SNS 10 Hz 5 minutes) was 32% and the “reduction in duration of histamine effect vs control” value ([4]; histamine i.a. 5.4×10^−09 moles following SNS 10 Hz 5 minutes) was 33%.

In the case of `FC(F)(F)c1cc(CO[C@H]2CCCN[C@H]2c2ccccc2)cc(C(F)(F)F)c1` [L-733060], the “vascular effect of the antagonist” value ([1]; pretreatment with 114 nmoles/kg) is reported as “vasoconstrictive effect” and the “blockade of SP-induced decrease in SVR” value [5] is reported as “clear inhibition of the SP effect”.

With “SP 5-11: C-terminal fragment of SP produced by DPPIV cleavage (QQFFGLM; ends and bridges not checked; UniProt P20366 62-68, looked up, fragment)” the “decrease in SVR” value ([3]; SP 5-11 10 pg) was 5%, the “decrease in SVR” value ([3]; SP 5-11 1 μg) was 35% and the “SP 5-11 less potent than SP at causing vasodilation” value ([3]; pig, in vivo) was “at least 100 fold”.

For `COc1cc(CNC(=O)CCCCC=CC(C)C)ccc1O` [Capsaicin, 8-methyl-N-vanillyl-6-nonenamide], the “effect of capsaicin injection on Vr” value ([2]; following SNS, similar to control conditions) was “dose-dependent decrease of Vr”.
